Structures can show the parent of a compound that is named as a salt.
These compounds were tested on NF-kB activation induced by TNFα (assay: TNFα Luciferase assay: inhibition of NF-kB activation induced by TNFα in HEK293/NF-kB luciferase cells). Conditions: 25 ng/ml of TNF-α for four hours, quadruplicate, read-out: IC50, concentration at which NF-kB activation was reduced by 50%.
Type: cell-based
Experimental: Determination of Inhibition of NF-kB Activation Induced by TNFα . . . In Vitro Assay
The ability of a compound disclosed herein to inhibit NFkB activation induced by TNFα was determined using the TNFα Luciferase assay. The HEK293/NF-kB luciferase cell line was obtained by cotransfection of pNFkB-luc vector with pHyg (Panomics, CA, USA) followed by hygromycin selection. HEK293/NFkB Luciferase cells were grown in DMEM medium supplemented with 10% fetal bovine serum, 100 U/ml of penicillin, 100 ng/ml of streptomycin/Fungizone, and 100 μg/ml of hygromycin B as the selecting agent. HEK293 NFkB Luciferase cells were grown in T75 flasks (Nunc™ Cell Culture Treated EasYFlasks™) in a cell culture incubator at 37° C. and 5% CO2.
Confluent T75 cell culture flasks (approximately 8-10 million of cells per flask) were washed with 10 ml of sterile PBS (without calcium and magnesium) under a biosafety cabinet. After aspiration of the PBS with a sterile glass pipette, the layer of cells (for each T75 flask) was covered with 1 ml of TrypLE™ Express without phenol red (Gibco) at room temperature. After one minute of incubation, HEK293 were mechanically resuspended in the TrypLE by tapping the side of the flask. The cells were then resuspended with 10 ml of pre-warmed complete culture medium and transferred to a conical tube. Cells were centrifuged for 5 minutes at 4000 rpm (1000 g) at room temperature. The cellular pellet was resuspended with 24 ml of pre-warmed cell culture media and […] of cell suspension (approximately 80,000 cells per well) was plated per well in 96-well cell culture plates (Costar #3599, Corning, N.Y., USA) using a multichannel pipette and reversed pipetting to prevent air bubble formation. After plating, the cells were maintained overnight in the cell culture incubator before being treated. For each 96 well cell culture plate, 8 wells were used as “control wells” (only culture medium added) and to 8 wells only TNFα was added. The NF-kB Luciferase reporter cell line was challenged with 25 ng/ml of TNF-α for four hours in the presence and absence (control conditions) of a dose range of the different compounds to be tested. For each compound, a dose range of concentrations was tested in quadruplicate and used to determine an IC50.
Luciferase activity was monitored using the Luc-Screen® Extended-Glow Luciferase Reporter Gene Assay System by chemoluminescence according to the instruction of the manufacturer (Invitrogen) and a BioTek Synergy HT plate reader (BioTek Instruments, VT, USA).
“mixture of 2-((S)-1-oxo-1-((R)-6-(pyridin-3-yl)-5,6-dihydropyridin-1(2H)-yl)butan-2-yl)isoindoline-1,3-dione and 2-((R)-1-oxo-1-((S)-6-(pyridin-3-yl)-5,6-dihydropyridin-1(2H)-yl)butan-2-yl)isoindoline-1,3-dione [Compound 6]” was tested, and the IC50 was 750000 nM. `C[C@H](NC(=O)c1cccc([N+](=O)[O-])c1)C(=O)N1CC=CCC1c1cccnc1` (stereo partly shown) [Compound 9] showed an IC50 of 200000 nM.

Same assay, conditions: Homo sapiens, 4 h, 25 ng/ml of TNF-α for four hours, quadruplicate, read-out: IC50, concentration at which NF-kB activation was reduced by 50%
Compound `NCC(=O)Nc1cccc(C(=O)N[C@@H](Cc2ccccc2)C(=O)N2CC=CCC2c2cccnc2)c1` (stereo partly drawn) [Compound 53, 3-(2-aminoacetamido)-N-((2S)-1-oxo-3-phenyl-1-(6-(pyridin-3-yl)-5,6-dihydropyridin-1(2H)-yl)propan-2-yl)benzamide hydrochloride] has an IC50 of 212 nM. `CC(=O)Nc1cccc(C(=O)NC(Cc2ccccc2)C(=O)N2CC=CCC2c2cccnc2)c1` (stereo not shown) [Compound 39, 3-acetamido-N-(1-oxo-3-phenyl-1-(6-(pyridin-3-yl)-5,6-dihydropyridin-1(2H)-yl)propan-2-yl)benzamide] was tested, and the IC50 was 210 nM. `CCCC(=O)Nc1ccccc1C(=O)N[C@@H](Cc1ccccc1)C(=O)N1CC=CCC1c1cccnc1` (stereo partly drawn) [Compound 47, 2-butyramido-N-((2S)-1-oxo-3-phenyl-1-(6-(pyridin-3-yl)-5,6-dihydropyridin-1(2H)-yl)propan-2-yl)benzamide] was tested, and the IC50 was 159 nM. Work on `CCOc1cccc(C(=O)NC(Cc2ccccc2)C(=O)N2CC=CCC2c2cccnc2)c1` (stereo not shown) [Compound 20, 3-ethoxy-N-(1-oxo-3-phenyl-1-(6-(pyridin-3-yl)-5,6-dihydropyridin-1(2H)-yl)propan-2-yl)benzamide] yielded an IC50 of 1500 nM. Compound `COc1cccc(C(=O)N[C@@H](Cc2ccccc2)C(=O)N2CC=CCC2c2cccnc2)c1` (stereo partly drawn) [Compound 35, 3-methoxy-N-((2S)-1-oxo-3-phenyl-1-(6-(pyridin-3-yl)-5,6-dihydropyridin-1(2H)-yl)propan-2-yl)benzamide] has an IC50 of 1600 nM. `CC(C)[C@@H](C(=O)N1CC=CC[C@H]1c1cccnc1)N1C(=O)c2ccccc2C1=O` (single isomer, unassigned) [Compound 3] gave an IC50 of 750000 nM. `COc1cccc(C(=O)N[C@H](Cc2ccccc2)C(=O)N2CC=CCC2c2cccnc2)c1` (stereo partly drawn) [Compound 25, 3-methoxy-N-((2R)-1-oxo-3-phenyl-1-(6-(pyridin-3-yl)-5,6-dihydropyridin-1(2H)-yl)propan-2-yl)benzamide] was tested, and the IC50 was 2500 nM. For `CC(C)CC(=O)Nc1cccc(C(=O)N[C@@H](Cc2ccccc2)C(=O)N2CC=CCC2c2cccnc2)c1` (stereo partly drawn) [Compound 42, 3-(3-methylbutanamido)-N-((2S)-1-oxo-3-phenyl-1-(6-(pyridin-3-yl)-5,6-dihydropyridin-1(2H)-yl)propan-2-yl)benzamide], the IC50 was 86.9 nM. Work on `NCCCC(=O)Nc1cccc(C(=O)N[C@@H](Cc2ccccc2)C(=O)N2CC=CCC2c2cccnc2)c1` (stereo partly drawn) [Compound 55, 3-(4-aminobutanamido)-N-((2S)-1-oxo-3-phenyl-1-(6-(pyridin-3-yl)-5,6-dihydropyridin-1(2H)-yl)propan-2-yl)benzamide hydrochloride] yielded an IC50 of 170 nM. In the case of `O=C(N[C@@H](Cc1ccccc1)C(=O)N1CC=CCC1c1cccnc1)c1cccnc1` (stereo partly drawn) [Compound 51, N-((2S)-1-oxo-3-phenyl-1-(6-(pyridin-3-yl)-5,6-dihydropyridin-1(2H)-yl)propan-2-yl)nicotinamide], the IC50 is reported as 114 nM. Work on `CCCC(=O)Nc1cccc(C(=O)NC(Cc2ccccc2)C(=O)N2CC=CCC2c2cccnc2)c1` (stereo not shown) [Compound 37, 3-butyramido-N-(1-oxo-3-phenyl-1-(6-(pyridin-3-yl)-5,6-dihydropyridin-1(2H)-yl)propan-2-yl)benzamide] yielded an IC50 of 125 nM. `Nc1cccc(C(=O)NC(Cc2ccccc2)C(=O)N2CC=CCC2c2cccnc2)c1` (stereo not shown) [Compound 38, 3-amino-N-(1-oxo-3-phenyl-1-(6-(pyridin-3-yl)-5,6-dihydropyridin-1(2H)-yl)propan-2-yl)benzamide] was tested, and the IC50 was 250 nM. For `O=C(N[C@@H](Cc1ccccc1)C(=O)N1CC=CCC1c1cccnc1)c1ccc2ccccc2n1` (stereo partly drawn) [Compound 49, N-((2S)-1-oxo-3-phenyl-1-(6-(pyridin-3-yl)-5,6-dihydropyridin-1(2H)-yl)propan-2-yl)quinoline-2-carboxamide], the IC50 was 174 nM. Compound `CCCCC(=O)Nc1cccc(C(=O)NC(Cc2ccccc2)C(=O)N2CC=CCC2c2cccnc2)c1` (stereo not shown) [Compound 36, N-(1-oxo-3-phenyl-1-(6-(pyridin-3-yl)-5,6-dihydropyridin-1(2H)-yl)propan-2-yl)-3-pentanamidobenzamide] has an IC50 of 150 nM. Work on `O=C1c2ccccc2C(=O)N1CC(=O)N1CC=CCC1c1cccnc1` (stereo not shown) [Compound 8, 2-(2-oxo-2-(6-(pyridin-3-yl)-5,6-dihydropyridin-1(2H)-yl)ethyl)isoindoline-1,3-dione] yielded an IC50 of 550000 nM. `CCCC(=O)Nc1cccc(C(=O)N[C@@H](Cc2cccc3ccccc23)C(=O)N2CC=CCC2c2cccnc2)c1` (stereo partly shown) [Compound 64, 3-butyramido-N-((2 S)-3-(naphthalen-1-yl)-1-oxo-1-(6-(pyridin-3-yl)-5,6-dihydropyridin-1 (2H)-yl)propan-2-yl)benzamide] was tested, and the IC50 was 285 nM. For `CC[C@H](C)C(=O)Nc1cccc(C(=O)N[C@@H](Cc2ccccc2)C(=O)N2CC=CCC2c2cccnc2)c1` (stereo partly drawn) [Compound 57, 3-((S)-2-methylbutanamido)-N-((2S)-1-oxo-3-phenyl-1-(6-(pyridin-3-yl)-5,6-dihydropyridin-1(2H)-yl)propan-2-yl)benzamide], the IC50 was 121 nM. For `O=C(CCCC[C@@H]1SC[C@@H]2NC(=O)N[C@@H]21)Nc1cccc(C(=O)N[C@@H](Cc2ccccc2)C(=O)N2CC=CCC2c2cccnc2)c1` (stereo partly drawn) [Compound 41, 3-{5-[(3aS,4S,6aR)-2-oxo-hexahydro-1H-thieno[3,4-d]imidazol-4-yl]pentanamido}-N-[(2S)-1-oxo-3-phenyl-1-{1,2,3,6-tetrahydro-[2,3′-bipyridin]-1-yl}propan-2-yl]benzamide], the IC50 was 250 nM. Compound `COc1cc(OC)cc(C(=O)N[C@H](Cc2ccccc2)C(=O)N2CC=CCC2c2cccnc2)c1` (stereo partly drawn) [Compound 28, 3,5-dimethoxy-N-((2R)-1-oxo-3-phenyl-1-(6-(pyridin-3-yl)-5,6-dihydropyridin-1(2H)-yl)propan-2-yl)benzamide] has an IC50 of 6500 nM. For `C[C@H](C(=O)N1CC=CCC1c1cccnc1)N1C(=O)c2ccccc2C1=O` (stereo partly drawn) [Compound 17, 2-((2R)-1-oxo-1-(6-(pyridin-3-yl)-5,6-dihydropyridin-1(2H)-yl)propan-2-yl)isoindoline-1,3-dione], the IC50 was 140000 nM. Compound `CCOc1cc(C(=O)N[C@H](Cc2ccccc2)C(=O)N2CC=CCC2c2cccnc2)ccc1OC` (stereo partly drawn) [Compound 26, 3-ethoxy-4-methoxy-N-((2R)-1-oxo-3-phenyl-1-(6-(pyridin-3-yl)-5,6-dihydropyridin-1(2H)-yl)propan-2-yl)benzamide] has an IC50 of 2800 nM. For `CCCC(=O)Nc1cccc(C(=O)NC(Cc2ccccc2)C(=O)N2CC=CCC2c2cc3ccccc3nc2Cl)c1` (stereo not shown) [Compound 67, 3-butyramido-N-(1-(2-(2-chloroquinolin-3-yl)-3,6-dihydropyridin-1(2H)-yl)-1-oxo-3-phenylpropan-2-yl)benzamide], the IC50 was 1700 nM. Compound `O=C(N[C@@H](Cc1ccccc1)C(=O)N1CC=CCC1c1cccnc1)c1cccc(NC(=O)C2CCCC2)c1` (stereo partly drawn) [Compound 46, 3-(cyclopentanecarboxamido)-N-((2S)-1-oxo-3-phenyl-1-(6-(pyridin-3-yl)-5,6-dihydropyridin-1(2H)-yl)propan-2-yl)benzamide] has an IC50 of 58.5 nM. `O=C(N[C@@H](Cc1ccccc1)C(=O)N1CC=CCC1c1cccnc1)c1cccc(NC(=O)C2CC2)c1` (stereo partly drawn) [Compound 44, 3-(cyclopropanecarboxamido)-N-((2S)-1-oxo-3-phenyl-1-(6-(pyridin-3-yl)-5,6-dihydropyridin-1(2H)-yl)propan-2-yl)benzamide] showed an IC50 of 80.2 nM. `O=C(N[C@@H](Cc1ccccc1)C(=O)N1CC=CCC1c1cccnc1)c1cnccn1` (stereo partly drawn) [Compound 50, N-((2S)-1-oxo-3-phenyl-1-(6-(pyridin-3-yl)-5,6-dihydropyridin-1(2H)-yl)propan-2-yl)pyrazine-2-carboxamide] was tested, and the IC50 was 131 nM. In the case of `CCOc1ccc(C(=O)N[C@@H](C)C(=O)N2CC=CCC2c2cccnc2)cc1OCC` (stereo partly drawn) [Compound 11, 3,4-diethoxy-N-((2S)-1-oxo-1-(6-(pyridin-3-yl)-5,6-dihydropyridin-1(2H)-yl)propan-2-yl)benzamide], the IC50 is reported as 250000 nM.
